Source: patent US8697858B2 (priority 2009, dated 2014)
l = locked nucleic acid (LNA); d = 2'-deoxy (DNA)

What was measured:
H1N1 (strain PR8) = assay type: cell-based, murine
M2 protein = assay type: cell-based, H1N1 (strain PR8)

Substance	reduction in viral HA RNA levels (H1N1 (strain PR8))	effectiveness in the viral HA RNA assay (H1N1 (strain PR8))	effectiveness in the M2 protein expression assay (M2 protein)	relative effectiveness of the 2′OMe compounds (viral HA RNA; also observed for M2 protein) (H1N1 (strain PR8))
LNA-AUG12: LNA (capitals)/DNA CgGtTaGaAgAcTcAt (CGGTTAGAAGACTCAT; sugars from the 5' end ldldldldldldldld, backbone and methylation of C not given here)	approximately 1.5 log	–	–	–
LNA-AUG10: LNA (capitals)/DNA gAcTcAtCtT (GACTCATCTT; sugars from the 5' end dldldldldl, backbone and methylation of C not given here)	–	least effective	least effective	–
2′OMe-AUG2: 2′OMe phosphorothioate oligomer, SEQ ID NO: 20 (ACCTCGGTTAGAAGACTCATCTTTC; all 2'-O-methyl, all phosphorothioate, T or U not given here)	–	–	–	most effective
LNA-AUG1: LNA (capitals)/DNA CgGtTaGaAgAcTcAtCtTt (CGGTTAGAAGACTCATCTTT; sugars from the 5' end ldldldldldldldldldld, backbone and methylation of C not given here)	approximately 3 log	–	most effective	–
